Data on one compound can be found in patent US20060106102A1, “Napththalene derivatives which inhibit the cytokine or biological activity of microphage migration inhibitory factor (mif)” (priority 2002, published 2006).

Molecules are shown by their SMILES. Several values for one entry are separate records, joined by “and”; a condition that tells them apart may be missing. Equal entries are not always repeated.

In the assay the test system is murine endotoxic shock model (LPS). Kind of assay: murine endotoxic shock model, serum cytokines by ELISA. The format is in vivo. The conditions noted are these: mice. As for the experimental part:
The activity of 6,7-dihydroxynaphthalene-3-sulfonic acid (compound 6) was studied in the murine endotoxic shock model. This model has been previously shown to be dependent on MIF (35). […] Endotoxaemia was induced by intra-peritoneal injection of lipopolysaccharide (LPS) (15 mg/kg) in 400 μl saline. Mice were treated with a saline solution (control) only, a saline solution and LPS, or LPS and 6,7-dihydroxynaphthalene-2-sulfonic acid (compound 6) at a dose of 15 mg/kg body weight by intra-peritoneal injection at 24 hours, 12 hours and 1 hour before intra-peritoneal LPS injection. After 1.5 or 6 hours mice were humanely killed by CO2 inhalation then neck dislocation. Serum was obtained from blood obtained by cardiac puncture prior to death and measured for cytokines including interleukin 1 (IL-1) and interleukin 6 (IL-6) by ELISA. The production of IL-1 and IL-6 has been previously shown to be dependent on MIF (36).
The effect of compounds was further tested under a variety of conditions in animals exposed to endotoxic shock induced as above by the injection of 15 mg/kg LPS by intraperitoneal injection. In each case, compounds were administered by intraperitoneal injection at a dose of 15 mg/kg. Compound administration was associated with reductions in serum cytokine concentration under a variety of administration regimens.

Regarding `O=S(=O)(O)c1ccc2cc(O)c(O)cc2c1` [Compound 6, 6,7-dihydroxynaphthalene-2-sulfonic acid], the “Serum TNF, LPS plus compound” value (compound 15 mg/kg i.p. at −18 h before LPS 15 mg/kg i.p.) was determined as 3970 ± 2565 pg/mL. Also, the “Serum IL-6, LPS plus compound” value (compound 15 mg/kg i.p. at −24 h, −1 h before LPS 15 mg/kg i.p.) was 150 ± 19 ng/mL and 104 ± 11 ng/mL. Besides, under “compound 15 mg/kg i.p. at −24 h, −12 h, −1 h before LPS 15 mg/kg i.p.”, the “serum IL-1, LPS plus compound” value came to 257 ± 70 ng/mL.
